Data published in patent publication US10463651B2, “3-(1H-pyrrolo[3,2-C]pyridin-2-YL)-1H-indazoles and therapeutic uses thereof” (Samumed, LLC, priority 2015, dated 2019).

Key:
Assay type in all cases: cell-based
SW480 colon cancer cells = assay: Cell viability assay (CellTiter-Blue); details: Homo sapiens; for EC50: 96 h, SW480 cell viability, four days, CellTiter-Blue; for inhibition at 10 µM: SW480, 96 h, read-out: percent inhibition at 10 μM
Method: Representative compounds were screened using the following assay procedure to assess the effect on cell viability as described below.
Approximately 2×10^3 SW480 colon cancer cells were seeded into each well and allowed to incubate in the presence or absence of compound for four days at 37° C./5% CO2. Eight replicates of DMSO-treated cells served as controls and cells treated with compound were performed in duplicate.
After incubation, 20 μL of CellTiter-Blue (Promega) was added to each well allowed to incubate for approximately 3 hours. This reagent was a buffered solution which contains resazurin, metabolically active cells were able to reduce rezarurin (blue) into resorufin (pink) which was highly fluorescent. This measured fluorescence was used as a readout for cell viability.

[1] = system: primary human fibroblasts derived from IPF patients (LL29 cells) treated with TGF-β1; assay: Inhibition of the fibrotic process (αSMA staining) in TGF-β1-treated fibroblasts; details: Fibroblast, 96 h; for EC50: % αSMA-positive LL29 cells, TGF-β1 20 ng/mL, 4 days; for inhibition at 10 µM: read-out: percent inhibition at 10 μM
Method: Representative compounds were screened using primary human fibroblasts (derived from IPF patients) treated with TGF-β1 to determine their ability to inhibit the fibrotic process.
LL29 cells are plated at 1,500 cells/well in 80 μL/well F12 medium supplemented with 1% Fetal Bovine Serum. […] Wells treated with TGF-P1 and containing DMSO were used as controls. […] Following incubation for 4 days, SYTOX green nucleic acid stain (Life Technologies [Thermo Fisher Scientific]) was added to the wells at a final concentration of 1 μM and incubated at room temperature for 30 min.

IL-6 (THP-1 cells) = assay: IL-6 inhibition in LPS-stimulated THP-1 cells (HTRF); details: Homo sapiens; for EC50: IL6 by HTRF, THP-1 cells, 500 ng/mL LPS, 22 hours; for inhibition at 10 µM: THP-1, read-out: percent inhibition at 10 M
Method: THP-1 cells were cultured in basal media with 1% FBS for 24 hours before the start of the assay. […] THP-1 cells were plated at 5000 cells/well in the 384-well plates and incubated at 37° C. for 2 h. 500 ng/mL of LPS was added after 2 hours and cells were incubated for another 22 hours at 37° C. Plates were spun in a centrifuge for 1 minute at […] and a mixture of anti-IL6 XL665, and anti-IL6 Cryptate diluted in reconstitution buffer (Cisbio Inc.) was added to each well. Following incubation for 3 hrs at room temperature, Homogeneous Time-Resolved Fluorescence (HTRF) was measured using the Envision (Perkin Elmer) at 665 nm and […]. The ratio of fluorescence at 665 nm to 620 nm was used as a readout for IL6 quantification. All samples were processed in duplicate. Readings were normalized to DMSO treated cells and normalized activities were utilized for EC50 calculations using the dose-response log (inhibitor) vs. response-variable slope (four parameters) nonlinear regression feature available in GraphPad Prism 5.0 (or Dotmatics).

[2] = system: Wnt activity (Sp5-Luc reporter, SW480 colon carcinoma cells); assay: Screening assay for Wnt activity (Sp5-Luc reporter gene assay in SW480 cells); details: Homo sapiens; for EC50: Sp5-Luc reporter, SW480 cells, incubated overnight; for inhibition at 10 µM: SW480, read-out: percent inhibition at 10 μM
Excerpt: The screening assay for Wnt activity is described as follows. Reporter cell lines can be generated by stably transducing cancer cell lines (e.g., colon cancer) or primary cells (e.g., IEC-6 intestinal cells) with a lentiviral construct that includes a Wnt-responsive promoter driving expression of the firefly luciferase gene.
SW480 colon carcinoma cells were transduced with a lentiviral vector expressing luciferase with a human Sp5 promoter consisting of a sequence of eight TCF/LEF binding sites. SW480 cells stably expressing the Sp5-Luc reporter gene and a hygromycin resistance gene were selected by treatment with 150 μg/mL of hygromycin for 7 days. These stably transduced SW480 cells were expanded in cell culture and used for all further screening activities. […] For Sp5-Luc reporter gene assays, the cells were plated at 4,000 cells/well in 384-well plates with medium containing 1% fetal bovine serum and incubated overnight at 37° C. and 5% CO2. Following incubation, 20 μl of BrightGlo luminescence reagent (Promega) was added to each well of the 384-well assay plates. The plates were placed on an orbital shaker for 2 min and then luminescence was quantified using the Envision (Perkin Elmer) plate reader. Readings were normalized to DMSO only treated cells, and normalized activities were utilized for EC50 calculations using the dose-response log (inhibitor) vs. response-variable slope (four parameters) nonlinear regression feature available in GraphPad Prism 5.0 (or Dotmatics).

EC50 (SW480 colon cancer cells) | EC50 (IL-6 (THP-1 cells)) | EC50 [2] | SMILES | EC50 [1] | inhibition at 10 µM (SW480 colon cancer cells) | inhibition at 10 µM [1] | inhibition at 10 µM (IL-6 (THP-1 cells)) | inhibition at 10 µM [2]
> 10000 nM | 489 nM | 445 nM | CC(C)(C)CC(=O)Nc1cncc(-c2ccc3[nH]nc(-c4cc5c(-c6ccccc6F)nccc5[nH]4)c3c2)c1 [Compound 72, N-(5-(3-(4-(2-Fluorophenyl)-1H-pyrrolo[3,2-c]pyridin-2-yl)-1H-indazol-5-yl)pyridin-3-yl)-3,3-dimethylbutanamide] | > 10000 nM | 9.6% | 0% |  | 
2780 nM | 66 nM | 1760 nM | NC1CN(c2cncc(-c3ccc4[nH]nc(-c5cc6c(N7CCCCC7)nccc6[nH]5)c4c3)n2)C1 [Compound 606, 1-(6-(3-(4-(Piperidin-1-yl)-1H-pyrrolo[3,2-c]pyridin-2-yl)-1H-indazol-5-yl)pyrazin-2-yl)azetidin-3-amine] | 236 nM |  |  |  | 
779 nM | 545 nM | 539 nM | CC(C)Nc1cncc(-c2ccc3[nH]nc(-c4cc5c(-c6ccc(F)cc6)nccc5[nH]4)c3c2)c1 [Compound 40, 5-(3-(4-(4-Fluorophenyl)-1H-pyrrolo[3,2-c]pyridin-2-yl)-1H-indazol-5-yl)-N-isopropylpyridin-3-amine] | 549 nM |  |  |  | 
2870 nM | 1420 nM | 1900 nM | CC(C)CC(=O)Nc1cncc(-c2ccc3[nH]nc(-c4cc5c(N6CCN(C)CC6)nccc5[nH]4)c3c2)c1 [Compound 226, 3-Methyl-N-(5-(3-(4-(4-methylpiperazin-1-yl)-1H-pyrrolo[3,2-c]pyridin-2-yl)-1H-indazol-5-yl)pyridin-3-yl)butanamide] | 2960 nM |  |  |  | 
> 10000 nM | 9510 nM | > 10000 nM | CN1CCN(c2nccc3[nH]c(-c4n[nH]c5ccc(-c6cncc(NC(=O)C7CCCC7)c6)cc45)cc23)CC1 [Compound 246, N-(5-(3-(4-(4-Methylpiperazin-1-yl)-1H-pyrrolo[3,2-c]pyridin-2-yl)-1H-indazol-5-yl)pyridin-3-yl)cyclopentanecarboxamide] | > 10000 nM | 34.3% | 0% |  | 17.1%
455 nM | 154 nM | 105 nM | CCCC(=O)Nc1cncc(-c2ccc3[nH]nc(-c4cc5cnccc5[nH]4)c3c2)c1 [Compound 269, N-(5-(3-(1H-Pyrrolo[3,2-c]pyridin-2-yl)-1H-indazol-5-yl)pyridin-3-yl) butyramide] | 149 nM |  |  |  | 
> 10000 nM | > 10000 nM | > 10000 nM | CC(C)(C)CC(=O)Nc1cncc(-c2ccc3[nH]nc(-c4cc5c(-c6ccc(F)cc6)nccc5[nH]4)c3c2)c1 [Compound 44, N-(5-(3-(4-(4-Fluorophenyl)-1H-pyrrolo[3,2-c]pyridin-2-yl)-1H-indazol-5-yl)pyridin-3-yl)-3,3-dimethylbutanamide] | > 10000 nM | 7.7% | 0% | 35% | 19.5%

The next lines start with the compound.

SMILES | EC50 (SW480 colon cancer cells) | EC50 (IL-6 (THP-1 cells)) | EC50 [2] | EC50 [1] | inhibition at 10 µM (SW480 colon cancer cells) | inhibition at 10 µM [1] | inhibition at 10 µM (IL-6 (THP-1 cells)) | inhibition at 10 µM [2]
O=C(Cc1ccccc1)Nc1cncc(-c2ccc3[nH]nc(-c4cc5c(-c6cccc(F)c6)nccc5[nH]4)c3c2)c1 [Compound 10, N-(5-(3-(4-(3-Fluorophenyl)-1H-pyrrolo[3,2-c]pyridin-2-yl)-1H-indazol-5-yl)pyridin-3-yl)-2-phenylacetamide] | 1020 nM | 660 nM | 875 nM | 630 nM |  |  |  | 
O=C(Nc1cncc(-c2ccc3[nH]nc(-c4cc5c(-c6cccc(F)c6)nccc5[nH]4)c3c2)c1)C1CCCCC1 [Compound 23, N-(5-(3-(4-(3-Fluorophenyl)-1H-pyrrolo[3,2-c]pyridin-2-yl)-1H-indazol-5-yl)pyridin-3-yl)cyclohexanecarboxamide] | 1140 nM | 108 nM | 1400 nM | 1460 nM |  |  |  | 
COc1cncc(-c2ccc3[nH]nc(-c4cc5c(-c6ccc(C)s6)nccc5[nH]4)c3c2)c1 [Compound 740, 5-(5-Methoxypyridin-3-yl)-3-(4-(5-methylthiophen-2-yl)-1H-pyrrolo[3,2-c]pyridin-2-yl)-1H-indazole] | 1510 nM | 5410 nM | 1150 nM | 445 nM |  |  |  | 
CS(=O)(=O)NCc1cc(F)cc(-c2nccc3[nH]c(-c4n[nH]c5ccc(-c6ccccn6)cc45)cc23)c1 [Compound 504, N-(3-Fluoro-5-(2-(5-(pyridin-2-yl)-1H-indazol-3-yl)-1H-pyrrolo[3,2-c]pyridin-4-yl)benzyl)methanesulfonamide] | 5540 nM | > 10000 nM | 3610 nM | 2130 nM |  |  | 40.6% | 
Fc1cccc(-c2nccc3[nH]c(-c4n[nH]c5ccc(-c6ccncc6)cc45)cc23)c1 [Compound 18, 3-(4-(3-Fluorophenyl)-1H-pyrrolo[3,2-c]pyridin-2-yl)-5-(pyridin-4-yl)-1H-indazole] | 1860 nM | > 10000 nM | > 10000 nM | 4350 nM |  |  | 8.4% | 58.3%
Cn1cc(-c2ccc3[nH]nc(-c4cc5c(-c6cccnc6)nccc5[nH]4)c3c2)cn1 [Compound 556, 5-(1-Methyl-1H-pyrazol-4-yl)-3-(4-(pyridin-3-yl)-1H-pyrrolo[3,2-c]pyridin-2-yl)-1H-indazole] | 448 nM | 90 nM | 59 nM | 29 nM |  |  |  | 
CS(=O)(=O)NCc1cc(F)cc(-c2nccc3[nH]c(-c4n[nH]c5ccc(-c6cncc(NC(=O)C7CCCC7)c6)cc45)cc23)c1 [Compound 498, N-(5-(3-(4-(3-Fluoro-5-(methylsulfonamidomethyl)phenyl)-1H-pyrrolo[3,2-c]pyridin-2-yl)-1H-indazol-5-yl)pyridin-3-yl)cyclopentanecarboxamide] | 1140 nM | 103 nM | 741 nM | 3500 nM |  |  |  | 
Fc1ccccc1-c1nccc2[nH]c(-c3n[nH]c4ccc(-c5cncc(OC6CCNCC6)c5)cc34)cc12 [Compound 544, 3-(4-(2-Fluorophenyl)-1H-pyrrolo[3,2-c]pyridin-2-yl)-5-(5-(piperidin-4-yloxy)pyridin-3-yl)-1H-indazole] | 2620 nM | 2490 nM | 2340 nM | > 10000 nM |  | 0% |  | 
CS(=O)(=O)NCc1cc(F)cc(-c2nccc3[nH]c(-c4n[nH]c5ccc(-c6cncc(NC(=O)C7CCC7)c6)cc45)cc23)c1 [Compound 497, N-(5-(3-(4-(3-Fluoro-5-(methylsulfonamidomethyl)phenyl)-1H-pyrrolo[3,2-c]pyridin-2-yl)-1H-indazol-5-yl)pyridin-3-yl)cyclobutanecarboxamide] | 492 nM | 27 nM | 188 nM | 599 nM |  |  |  | 
Cc1ccncc1-c1ccc2[nH]nc(-c3cc4c(-c5ccc(F)cc5)nccc4[nH]3)c2c1 [Compound 33, 3-(4-(4-Fluorophenyl)-1H-pyrrolo[3,2-c]pyridin-2-yl)-5-(4-methylpyridin-3-yl)-1H-indazole] | 3850 nM | > 10000 nM | 3720 nM | 2000 nM |  |  | 36.8% | 
